Patent US20040265880A1, “Genomic and proteomic approaches for the development of cell culture medium” (Sigma-Aldrich Co., priority 2003, published 2004)
Entries after “also recorded” stand apart in the source; their conditions may differ.

What was measured:
HEK-293 cells = assay: Resazurin high throughput proliferation assay, HEK-293; assay type: cell-based, human; conditions: for effect on HEK-293 proliferation (RFU, resazurin): versus base medium with 1% FBS, each ligand at three concentrations
Description: Resazurin is a metabolic dye which is converted to a fluorescent product. The greater the amount of the fluorescent product that is generated, the more metabolism, which directly correlates with cell number.
In this assay, resazurin was added to HEK-293 cells plated in each well of a 24-well assay plate containing a test medium containing one of the 16 ligands corresponding to the positive growth factors/cytokines and incubated at 37° C. After a 30 minute incubation, the plate was analyzed on a standard fluorescence plate reader. A higher RFU value from the plate reader translates to a higher cell density in the wells.
Briefly, the 16 ligands corresponding to positive growth factor/cytokine receptors were tested in the resazurin assay, each ligand at three different concentrations. The graphical representations of the RFU values observed for each factor, shown in FIGS. 3 and 4, include the base medium (with 1% FBS) shown as the pink line. The other 3 lines on each graph represent the three (3) concentrations of growth factor tested in the assay. […] Finally, some factors had no effect on the proliferation of the HEK-293 culture (FIG. 3A-3D).
(§1) Cells were plated in each well of a 24-well tissue culture treated plate containing 1 ml of a base medium. The base medium contained the lowest amount of FBS required to maintain approximately half-maximal growth of the given cell type. Test conditions were performed in triplicate, with each test compound added to the base medium at three different concentrations. The cells were allowed to grow until they reached approximately 33% confluent. At this point, 100 μl of the resazurin solution from a resazurin based in vitro toxicology kit (Sigma-Aldrich Co., Product No. TOX-8) was added to each well. After sufficient incubation time to convert some of the resazurin, the fluorescence was measured on a HTS 7000 Plus BioAssay Reader (Perkin-Elmer, Boston, Mass.). Readings were taken once a day until the culture was confluent (typically about 4 days). A plate with base medium only (no cells) was used as a blank and subtracted from the RFU reading to establish the final RFU values.

WI-38 cells = assay: Proliferation assay (resazurin), WI-38; assay type: cell-based, human; conditions: single factor added to base medium
Text: In order to test the possibility of using the method as applied to HEK-293 cells to identify pathways in other cell lines, the normal human fibroblast, WI-38 was chosen. These cells are typically grown in a base medium containing anywhere from 3-10% FBS.
Of the initial 17 receptors gleaned from the microarray, 12 ligands were chosen for testing. These ligands were chosen in the same way as the ligands for the HEK-293 cells, based on signal versus controls as well as based on knowledge of the various factors.
Signaling within a cell for increased growth can be stimulated in a variety of different ways. Combinations of the 4 chosen factors as listed above we added to cell culture medium to determine if the addition of more than 1 of the positive ligands would produce an increased amount of proliferation, or if the ligands would all stimulate the same downstream pathways, leading to no added benefit. This method allowed for the formulation of cell culture medium that it had not been possible to formulate prior to these assays.
as §1

CHO-AP cells [1] = assay: Alkaline phosphatase production assay, CHO-AP; assay type: cell-based, Chinese hamster; conditions: suspension culture in serum-free CHO medium
Description: (§2) In order to further test the possibility of using the method as applied to HEK-293 cells to identify pathways in other cell lines, Chinese hamster ovary (CHO) cells were run on a microarray. Cells from the CHO-AP line produce alkaline phosphatase (AP). These cells are grown in a suspension culture in a serum-free CHO medium (Sigma-Aldrich Co., Product No. C5467).
On day 7 of the assay, the contents of each well were collected into 1.5 ml microfuge tubes. The cell suspensions were centrifuged at 16,000 rpm for five minutes. The supernatants were collected in 2 ml cryovials and the cell pellets were discarded. Each supernatant was diluted 1:10 and then assayed for the presence of Alkaline Phosphatase using the Alkaline Phosphatase Reporter Gene Assay Kit, Fluorescence (Product AP-F).

CHO-AP cells [2] = assay: Proliferation assay, CHO-AP; assay type: cell-based, Chinese hamster; conditions: suspension culture in serum-free CHO medium
Description: as §2
Although the cDNA array from Takara is designed with human sequences, the array was probed using cDNA made from mRNA from the CHO cells. This attempt generated 22 positive receptors, of which 16 were tested (Table 6).
as §1, with “The cells were allowed to grow until they reached approximately 33% confluent. At this point, 100 μl of the resazurin solution from a resazurin based in vitro toxicology kit (Sigma-Aldrich Co., Product No. TOX-8) was added to each well.” left out

Compound	effect on HEK-293 proliferation (RFU, resazurin) (HEK-293 cells)	effect on proliferation of WI-38 cells (RFU) (WI-38 cells)	other results
CCCCC/C=C\C/C=C\C/C=C\C/C=C\CCCC(=O)O [arachidonic acid, reference compound]			effect on proliferation of HEK-293 cells (PKC pathway stimulation, Example 4) (HEK-293 cells; FIG. 10): positive effect
basic fibroblast growth factor [bFGF]	significant effect	significant increased proliferation	effect on proliferation of WI-38 cells (RFU) (WI-38 cells; listed as basic fibroblast growth factor): positive effects
epidermal growth factor [EGF, growth factor, ligand of EGF receptor]	significant effect		
interleukin-1 [IL-1]		significant increased proliferation	effect on proliferation of WI-38 cells (RFU) (WI-38 cells; listed as interleukin-1): positive effects; productivity of alkaline phosphatase by CHO-AP cells (CHO-AP cells [1]): increased the productivity; also recorded: positive effects; effect on proliferation of CHO-AP cells (CHO-AP cells [2]): positive effects
platelet-derived growth factor [PDGF]		significant increased proliferation	effect on proliferation of WI-38 cells (RFU) (WI-38 cells; listed as platelet-derived growth factor AB): positive effects
stromal cell-derived factor 1a [SDF1α]	significant effect	significant increased proliferation	effect on proliferation of WI-38 cells (RFU) (WI-38 cells; listed as stromal cell-derived factor 1 a): positive effects
